In patent US20230348376A1 (TEIJIN PHARMA LIMITED, priority 2020, published 2023):

Columns and labels:
[1] = system: rat oligodendrocyte progenitor cells; test: Promotive activity of rat oligodendrocyte progenitor cell differentiation-2 (immunostaining of MBP); assay type: cell-based; details: vitamin D derivative 2 μM, T3 30 nM, 4 days
Method: The promotive activity of oligodendrocyte progenitor cell (OPC) differentiation of the vitamin D derivatives was evaluated by immunostaining of MBP.
Subsequently, oligodendrocyte progenitor cell separation medium was added to the flask, and the mixture was similarly shaken for about 22 hours (37° C., 200 rpm), and the supernatant was collected to prepare oligodendrocyte progenitor cells.

[2] = Evaluation of brain penetration in mice (blood and brain concentration at brain Cmax); assay type: in vivo, mouse; details: 1 mg/kg single oral dose, C57BL/6J mice
Method: The administration solution was administered orally to C57BL/6J mice (8 weeks old, male, n=3) at a single dose (1 mg/kg). Mice were euthanized at 6 points of 0.25, 0.5, 1, 2, 4, and 8 hours after administration, and plasma and brain sampling were performed. After preparing a homogenate from the collected brain using Tissue Lyser II (QIAGEN #85300), acetonitrile was added to the homogenate and the homogenate was centrifuged (12000 rpm, 5 minutes) to extract the administered test compound contained in the brain. Similarly, the plasma was subjected to addition of acetonitrile and centrifugal separation to extract the administered test compound contained in the plasma. Each extracted sample was subjected to measurement of the concentration of administered test compound using LC/MS/MS (SHIMADZU UFLC/MS/MS (8050)).
Test 2 [0.2 mg/kg Administration Study] […] The administration solution was administered orally to C57BL/6J mice (8 weeks old, male, n=3) at a single dose (0.2 mg/kg). Mice were euthanized at 6 points of 0.25, 0.5, 1, 2, 4, and 8 hours after administration, and plasma and brain sampling were performed. After preparing a homogenate from the collected brain using Tissue Lyser II (QIAGEN #85300), acetonitrile was added to the homogenate and the homogenate was centrifuged (12000 rpm, 5 minutes) to extract the administered compound contained in the brain. Similarly, the plasma was subjected to addition of acetonitrile and centrifugal separation to extract the administered test compound contained in the plasma. Each extracted sample was subjected to measurement of the concentration of administered test compound using LC/MS/MS (SHIMADZU UFLC/MS/MS (8050)).

SMILES: C[C@H](CN1CC[C@@H](OCC(F)F)C1)[C@H]1CC[C@H]2/C(=C/C=C3C[C@@H](O)C[C@H](O)C3)CCC[C@]12C [Compound B058, (1R,3R)-5-(2-((1R,3aS,7aR,E)-1-((S)-1-((R)-3-(2,2-difluoroethoxy)pyrrolidin-1-yl)propan-2-yl)-7a-methyloctahydro-4H-inden-4-ylidene)ethylidene)cyclohexane-1,3-diol]
- Mean (number of MBP-positive cells/number of Hoechst33342-positive cells) ([1]; Test 2): 0.49
- Concentration in blood (mean ± SD) at brain Cmax ([2]; n=3): 78 ± 15 nM
- Concentration in brain (mean ± SD) at brain Cmax ([2]; n=3): 67 ± 9 pmol/g
- Kp ([2]; male, C57BL/6J, mouse, brain/plasma, po, 1 mg/kg, read-out: Concentration in brain/in blood ratio at brain Cmax): 0.86

SMILES: C=C1[C@H](O)CC(=C/C=C2\CCC[C@]3(C)[C@@H]([C@H](C)CN4CCCCC4(C)C)CC[C@@H]23)C[C@H]1O [Compound H003, (1R,3R)-5-(2-((1R,3aS,7aR,E)-1-((S)-1-(2,2-dimethylpiperidin-1-yl)propan-2-yl)-7a-methyloctahydro-4H-inden-4-ylidene)ethylidene)-2-methylenecyclohexane-1,3-diol]
- Mean (number of MBP-positive cells/number of Hoechst33342-positive cells) ([1]; Test 9): 0.30

SMILES: C=C1[C@H](O)CC(=C/C=C2\CCC[C@]3(C)[C@@H]([C@H](C)CN4CCN(C)C[C@@H]4C)CC[C@@H]23)C[C@H]1O [Compound H011, (1R,3R)-5-(2-((1R,3aS,7aR,E)-1-((S)-1-((S)-2,4-dimethylpiperazin-1-yl)propan-2-yl)-7a-methyloctahydro-4H-inden-4-ylidene)ethylidene)-2-methylenecyclohexane-1,3-diol]
- Mean (number of MBP-positive cells/number of Hoechst33342-positive cells) ([1]; Test 5): 0.30

SMILES: C=C1[C@H](O)CC(=C/C=C2\CCC[C@]3(C)[C@@H]([C@H](C)CN4CCN(C)C[C@H]4C)CC[C@@H]23)C[C@H]1O [Compound H012, (1R,3R)-5-(2-((1R,3aS,7aR,E)-1-((S)-1-((R)-2,4-dimethylpiperazin-1-yl)propan-2-yl)-7a-methyloctahydro-4H-inden-4-ylidene)ethylidene)-2-methylenecyclohexane-1,3-diol]
- Mean (number of MBP-positive cells/number of Hoechst33342-positive cells) ([1]; Test 7): 0.28

SMILES: C=C1[C@H](O)CC(=C/C=C2\CCC[C@]3(C)[C@@H]([C@H](C)CN4CCC[C@@H]4C(C)(C)O)CC[C@@H]23)C[C@H]1O [Compound H013, (1R,3R)-5-(2-((1R,3aS,7aR,E)-1-((S)-1-((R)-2-(2-hydroxypropan-2-yl)pyrrolidin-1-yl)propan-2-yl)-7a-methyloctahydro-4H-inden-4-ylidene)ethylidene)-2-methylenecyclohexane-1,3-diol]
- Mean (number of MBP-positive cells/number of Hoechst33342-positive cells) ([1]; Test 8): 0.35

SMILES: C=C1[C@H](O)CC(=C/C=C2\CCC[C@]3(C)[C@@H]([C@H](C)CN4CCC[C@H]4C(C)(C)O)CC[C@@H]23)C[C@H]1O [Compound H014, (1R,3R)-5-(2-((1R,3aS,7aR,E)-1-((S)-1-((S)-2-(2-hydroxypropan-2-yl)pyrrolidin-1-yl)propan-2-yl)-7a-methyloctahydro-4H-inden-4-ylidene)ethylidene)-2-methylenecyclohexane-1,3-diol]
- Mean (number of MBP-positive cells/number of Hoechst33342-positive cells) ([1]; Test 8): 0.37

SMILES: C=C1[C@H](O)CC(=C/C=C2\CCC[C@]3(C)[C@@H]([C@H](C)CN4CCC[C@@H]4C(C)(C)OC)CC[C@@H]23)C[C@H]1O [Compound H015, (1R,3R)-5-(2-((1R,3aS,7aR,E)-1-((S)-1-((R)-2-(2-methoxypropan-2-yl)pyrrolidin-1-yl)propan-2-yl)-7a-methyloctahydro-4H-inden-4-ylidene)ethylidene)-2-methylenecyclohexane-1,3-diol]
- Mean (number of MBP-positive cells/number of Hoechst33342-positive cells) ([1]; Test 8): 0.34

SMILES: C=C1[C@H](O)CC(=C/C=C2\CCC[C@]3(C)[C@@H]([C@H](C)CN4CCC[C@H]4C(C)(C)OC)CC[C@@H]23)C[C@H]1O [Compound H016, (1R,3R)-5-(2-((1R,3aS,7aR,E)-1-((S)-1-((S)-2-(2-methoxypropan-2-yl)pyrrolidin-1-yl)propan-2-yl)-7a-methyloctahydro-4H-inden-4-ylidene)ethylidene)-2-methylenecyclohexane-1,3-diol]
- Mean (number of MBP-positive cells/number of Hoechst33342-positive cells) ([1]; Test 8): 0.30

SMILES: C=C1/C(=C\C=C2/CCC[C@]3(C)[C@@H]([C@H](C)CN4CCCC[C@@H]4C)CC[C@@H]23)C[C@@H](O)C[C@H]1O [Compound I001, (1R,3R,Z)-5-(2-((1R,3aS,7aR,E)-7a-methyl-1-((S)-1-((S)-2-methylpiperidin-1-yl)propan-2-yl)octahydro-4H-inden-4-ylidene)ethylidene)-4-methylenecyclohexane-1,3-diol]
- Mean (number of MBP-positive cells/number of Hoechst33342-positive cells) ([1]; Test 9): 0.30

SMILES: C=C1/C(=C\C=C2/CCC[C@]3(C)[C@@H]([C@H](C)CN4CCCC[C@H]4C)CC[C@@H]23)C[C@@H](O)C[C@H]1O [Compound I002, (1R,3R,Z)-5-(2-((1R,3aS,7aR,E)-7a-methyl-1-((S)-1-((R)-2-methylpiperidin-1-yl)propan-2-yl)octahydro-4H-inden-4-ylidene)ethylidene)-4-methylenecyclohexane-1,3-diol]
- Mean (number of MBP-positive cells/number of Hoechst33342-positive cells) ([1]; Test 9): 0.31

SMILES: C=C1/C(=C\C=C2/CCC[C@]3(C)[C@@H]([C@H](C)CN4CCCCC4(C)C)CC[C@@H]23)C[C@@H](O)C[C@H]1O [Compound I003, (1R,3R,Z)-5-(2-((1R,3aS,7aR,E)-1-((S)-1-(2,2-dimethylpiperidin-1-yl)propan-2-yl)-7a-methyloctahydro-4H-inden-4-ylidene)ethylidene)-4-methylenecyclohexane-1,3-diol]
- Mean (number of MBP-positive cells/number of Hoechst33342-positive cells) ([1]; Test 9): 0.33

SMILES: C=C1/C(=C\C=C2/CCC[C@]3(C)[C@@H]([C@H](C)CN4CCOC[C@@H]4C)CC[C@@H]23)C[C@@H](O)C[C@H]1O [Compound I004, (1R,3R,Z)-5-(2-((1R,3aS,7aR,E)-7a-methyl-1-((S)-1-((S)-3-methylmorpholino)propan-2-yl)octahydro-4H-inden-4-ylidene)ethylidene)-4-methylenecyclohexane-1,3-diol]
- Mean (number of MBP-positive cells/number of Hoechst33342-positive cells) ([1]; Test 4): 0.44

SMILES: C=C1/C(=C\C=C2/CCC[C@]3(C)[C@@H]([C@H](C)CN4CCOC[C@H]4C)CC[C@@H]23)C[C@@H](O)C[C@H]1O [Compound I005, (1R,3R,Z)-5-(2-((1R,3aS,7aR,E)-7a-methyl-1-((S)-1-((R)-3-methylmorpholino)propan-2-yl)octahydro-4H-inden-4-ylidene)ethylidene)-4-methylenecyclohexane-1,3-diol]
- Mean (number of MBP-positive cells/number of Hoechst33342-positive cells) ([1]; Test 4): 0.43

SMILES: C=C1/C(=C\C=C2/CCC[C@]3(C)[C@@H]([C@H](C)CN4CCOCC4(C)C)CC[C@@H]23)C[C@@H](O)C[C@H]1O [Compound I006, (1R,3R,Z)-5-(2-((1R,3aS,7aR,E)-1-((S)-1-(3,3-dimethylmorpholino)propan-2-yl)-7a-methyloctahydro-4H-inden-4-ylidene)ethylidene)-4-methylenecyclohexane-1,3-diol]
- Mean (number of MBP-positive cells/number of Hoechst33342-positive cells) ([1]; Test 4): 0.51
